The text below walks through data of patent US20250032514A1, “COMPOSITIONS AND METHODS FOR THE TREATMENT OF VARIOUS DISEASES” (Amylyx Pharmaceuticals, Inc., priority 2023, published 2025).

A short description of data set [1]: Study A35-002: single-dose PK of AMX0035, fasted vs high-fat meal, two-period cross-over. The note with it: for half-life: both sexes, human, plasma. Type of data set: in vivo, human. The method, then: The pharmacokinetics (PK) of PB and TURSO after a single dose administration of AMX0035 were determined in adult (40 to 55 years of age) male and female normal healthy participants. Fourteen participants received a single dose of AMX0035 on two occasions (with a washout between periods of no less than 4 days), after fasting or after a high-fat standardized meal in a balanced, two-period, cross-over design (Study A35-002).
Clearance is rapid, and the terminal half-life (t1/2) is less than 1 hour. […] The primary metabolite of PB is phenylacetate (PAA), which occurs endogenously as a phenylalanine metabolite. […] Many participants had two or three peaks of absorption, which is consistent with bile acid storage and release upon a meal/snack. […] The primary metabolites of TURSO include ursodeoxycholic acid (UDCA) and glycoursodeoxycholic acid (GUDCA). All three are naturally occurring hydrophilic bile acids and subject to extensive enterohepatic recirculation.

In data set [2] the test system is G93A SOD1 mouse model of ALS. The conditions noted are these: cited from earlier work.
For data set [3] the following is noted: in vivo; cited from earlier work.
Setting [4] is: single oral dose of AMX0035, healthy adults.

Where two headings read alike, the source gives them in different places.

As for `O=C(O)CCCc1ccccc1` [PB, sodium phenylbutyrate], the half-life in data set [1] (oral, under both the fed and fasted condition, read-out: terminal half-life (converted)) was about 0.5 h. Further, the half-life in data set [1] (single oral dose of AMX0035, healthy adults, read-out: terminal half-life (t1/2)) was under 1 h. Further, in data set [1] (high-fat meal vs fasted), the “absorption in the presence of a high-fat meal” value was “significantly slower” and the “overall exposure in the presence of a high-fat meal” value was “lower”. In data set [1] (setting [4]), the “absorption of PB” value is given as “rapidly absorbed” and the clearance result is “rapid”. Moreover, in data set [2], the “survival in in vivo models” value was “increase survival”.
On to `C[C@H](CCC(=O)NCCS(=O)(=O)O)[C@H]1CC[C@H]2[C@@H]3[C@@H](O)C[C@@H]4C[C@H](O)CC[C@]4(C)[C@H]3CC[C@]12C` [TURSO, taurursodiol], for which the half-life in data set [1] (oral, fasting, read-out: terminal t1/2 (average) (converted)) was 4.8 h. In data set [1] (fed), the “terminal t1/2 (average)” value was 3.6 h. In addition, in data set [1] (given with or without food), the “absorption of TURSO” value is recorded as “slowly absorbed”. Also, in data set [1] (high-fat meal vs fasted), the “Cmax in the presence of a high-fat meal” value was “similar” and the “increase in exposure as AUC0-last in the presence of a high-fat meal” value was “less than 1 fold”. Moreover, the “most common adverse reactions reported (≥1%)” value in data set [3] was “abdominal discomfort, abdominal pain, diarrhea, nausea, pruritus, and rash”.
